These results are taken from patent US10227668B2, “Method for preparing fructose or xylulose from biomass containing glucose or xylose using butanol, and method for separating the same” (KOREA RESEARCH INSTITUTE OF CHEMICAL TECHNOLOGY, priority 2016, dated 2019).

Data set [1] can be described thus: Solubility in 1-butanol. The format is physicochemical. To be noted: per 100 g 1-butanol, 50° C. An excerpt: As a result, glucose having remarkably low solubility at the corresponding temperature can be selectively crystallized, thereby easily separating the glucose by filtration.
The conditions of data set [2]: @ 40° C.; cited from earlier work.
The conditions of data set [3]: @ 40° C.; cited from earlier work. This is another data set of the same source.

≈ marks a conversion by molar mass, not a printed value.

As for `O=C(CO)[C@@H](O)[C@H](O)[C@H](O)CO` [fructose], the “solubility in 1-butanol” value in data set [1] turned out to be 32 g. Moreover, the solubility in methanol in data set [2] was 229.7 mg/mL (≈ 1280 mM). Further, the solubility in ethanol in data set [3] is 36.3 mg/mL (≈ 201 mM).
